Experimental data from publication PMC7979765, “trans-Translation inhibitors bind to a novel site on the ribosome and clear Neisseria gonorrhoeae in vivo” (Nature Communications, 2021).
Converted amounts (≈) assume the structure as drawn. Like-named read-outs stand apart in the source and are kept apart here.

Legend:
Neisseria gonorrhoeae = test: MIC, microbroth dilution, G77L medium; assay type: cell-based
[1] = Serum protein binding, murine; assay type: in vitro ADME, mouse; conditions: mouse, serum, murine serum; read-out: murine serum binding (% bound)
Description: Serum protein binding was determined using an equilibrium dialysis method as described. The amount of compound in each chamber (buffer and serum) was measured using methods for reverse-phase liquid chromatography/mass spectroscopy methods that were customized for each compound.

[2] = Liver microsome stability, murine; assay type: in vitro ADME, mouse
Summary of the method: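 Compounds incubated with liver microsomes plus NADPH over 30 min; parent remaining quantified by reverse-phase LC/MS. Half-life from linear regression over several time points.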

Q: What does the source list for `O=C(Nc1nnc(-c2ccc(F)cc2)o1)c1ccc(Cl)cc1` [KKL-35, 4-chloro-N-(5-(4-fluorophenyl)-1,3,4-oxadiazol-2-yl)benzamide]?
A: MIC (Neisseria gonorrhoeae; Neisseria gonorrhoeae, ATCC49226, Neisseria gonorrhoeae ATCC 49226, source data, individual replicates, read-out: MIC): 0.124 µg/mL (≈ 0.39 µM); MIC (Neisseria gonorrhoeae; Neisseria gonorrhoeae, ATCC49226, strain ATCC 49226, geomean of replicates, read-out: MIC GEOMEAN): 0.124 µg/mL (≈ 0.39 µM); MIC (Neisseria gonorrhoeae; Neisseria gonorrhoeae, ATCC49226, strain ATCC 49226, replicates 1-3, read-out: MIC): 0.124 µg/mL (≈ 0.39 µM); MIC (Neisseria gonorrhoeae; Neisseria gonorrhoeae, ATCC49226, strain ATCC 49226, type strain, read-out: MIC): 0.12 µg/mL (≈ 0.378 µM); MIC (Neisseria gonorrhoeae; Neisseria gonorrhoeae, ATCC49226, strain MMX ATCC 49226, broth dilution by Micromyx, read-out: MIC): 0.25 µg/mL (≈ 0.787 µM); MIC (Neisseria gonorrhoeae; Neisseria gonorrhoeae, ATCC49226, strain MMX ATCC 49226, single data point, Micromyx, read-out: MIC): 0.25 µg/mL (≈ 0.787 µM); MIC (Neisseria gonorrhoeae; Neisseria gonorrhoeae, ATCC700719, strain ATCC 700719, SPT, read-out: MIC): 0.25 µg/mL (≈ 0.787 µM); MIC (Neisseria gonorrhoeae; Neisseria gonorrhoeae, ATCC700719, strain ATCC 700719, geomean of replicates, read-out: MIC GEOMEAN): 0.248 µg/mL (≈ 0.781 µM); MIC (Neisseria gonorrhoeae; Neisseria gonorrhoeae, ATCC700719, strain ATCC 700719, replicates 1-3, read-out: MIC): 0.248 µg/mL (≈ 0.781 µM); MIC (Neisseria gonorrhoeae; Neisseria gonorrhoeae, ATCC700825, strain ATCC 700825, STR, read-out: MIC): 0.06 µg/mL (≈ 0.189 µM); MIC (Neisseria gonorrhoeae; Neisseria gonorrhoeae, ATCC700825, strain ATCC 700825, geomean of replicates, read-out: MIC GEOMEAN): 0.062 µg/mL (≈ 0.195 µM); MIC (Neisseria gonorrhoeae; Neisseria gonorrhoeae, ATCC700825, strain ATCC 700825, replicates 1-3, read-out: MIC): 0.062 µg/mL (≈ 0.195 µM); MIC (Neisseria gonorrhoeae; Neisseria gonorrhoeae, BAA1846, strain BAA-1846, TET, read-out: MIC): 0.06 µg/mL (≈ 0.189 µM); MIC (Neisseria gonorrhoeae; Neisseria gonorrhoeae, BAA1846, strain BAA-1846, geomean of replicates, read-out: MIC GEOMEAN): 0.062 µg/mL (≈ 0.195 µM); MIC (Neisseria gonorrhoeae; Neisseria gonorrhoeae, BAA1846, strain BAA-1846, replicates 1-3, read-out: MIC): 0.062 µg/mL (≈ 0.195 µM); MIC (Neisseria gonorrhoeae; Neisseria gonorrhoeae, strain H041, Fig. 1B, read-out: N. gonorrhoeae H041 MIC): 0.12 µg/mL (≈ 0.378 µM); MIC (Neisseria gonorrhoeae; Neisseria gonorrhoeae, strain HO41, PEN, TET, CFM, CRO, LVX, read-out: MIC): 0.25 µg/mL (≈ 0.787 µM); MIC (Neisseria gonorrhoeae; Neisseria gonorrhoeae, strain HO41, geomean of replicates, read-out: MIC GEOMEAN): 0.248 µg/mL (≈ 0.781 µM); MIC (Neisseria gonorrhoeae; Neisseria gonorrhoeae, strain HO41, replicates 1-3, read-out: MIC): 0.248 µg/mL (≈ 0.781 µM); MIC (Neisseria gonorrhoeae; Neisseria gonorrhoeae, strain MMX 6744, broth dilution by Micromyx, read-out: MIC): 0.13 µg/mL (≈ 0.409 µM); MIC (Neisseria gonorrhoeae; Neisseria gonorrhoeae, strain MMX 6744, single data point, Micromyx, read-out: MIC): 0.13 µg/mL (≈ 0.409 µM); MIC (Neisseria gonorrhoeae; Neisseria gonorrhoeae, strain MMX 6746, CIP, by Micromyx, read-out: MIC): 0.13 µg/mL (≈ 0.409 µM); MIC (Neisseria gonorrhoeae; Neisseria gonorrhoeae, strain MMX 6746, single data point, Micromyx, read-out: MIC): 0.13 µg/mL (≈ 0.409 µM); MIC (Neisseria gonorrhoeae; Neisseria gonorrhoeae, strain MMX 6752, TET, by Micromyx, read-out: MIC): 0.25 µg/mL (≈ 0.787 µM); MIC (Neisseria gonorrhoeae; Neisseria gonorrhoeae, strain MMX 6752, single data point, Micromyx, read-out: MIC): 0.25 µg/mL (≈ 0.787 µM); MIC (Neisseria gonorrhoeae; Neisseria gonorrhoeae, strain MMX 6753, by Micromyx, read-out: MIC): 0.06 µg/mL (≈ 0.189 µM); MIC (Neisseria gonorrhoeae; Neisseria gonorrhoeae, strain MMX 6753, single data point, Micromyx, read-out: MIC): 0.06 µg/mL (≈ 0.189 µM); MIC (Neisseria gonorrhoeae; Neisseria gonorrhoeae, strain MMX 6757, by Micromyx, read-out: MIC): 0.06 µg/mL (≈ 0.189 µM); MIC (Neisseria gonorrhoeae; Neisseria gonorrhoeae, strain MMX 6757, single data point, Micromyx, read-out: MIC): 0.06 µg/mL (≈ 0.189 µM); MIC (Neisseria gonorrhoeae; Neisseria gonorrhoeae, strain MMX 6758, by Micromyx, read-out: MIC): 0.13 µg/mL (≈ 0.409 µM); MIC (Neisseria gonorrhoeae; Neisseria gonorrhoeae, strain MMX 6758, single data point, Micromyx, read-out: MIC): 0.13 µg/mL (≈ 0.409 µM); MIC (Neisseria gonorrhoeae; Neisseria gonorrhoeae, strain MMX 6762, by Micromyx, read-out: MIC): 0.13 µg/mL (≈ 0.409 µM); MIC (Neisseria gonorrhoeae; Neisseria gonorrhoeae, strain MMX 6762, single data point, Micromyx, read-out: MIC): 0.13 µg/mL (≈ 0.409 µM); MIC (Neisseria gonorrhoeae; Neisseria gonorrhoeae, strain MMX 6767, by Micromyx, read-out: MIC): 0.06 µg/mL (≈ 0.189 µM); MIC (Neisseria gonorrhoeae; Neisseria gonorrhoeae, strain MMX 6767, single data point, Micromyx, read-out: MIC): 0.06 µg/mL (≈ 0.189 µM); MIC (Neisseria gonorrhoeae; Neisseria gonorrhoeae, strain MMX 6771, TET, by Micromyx, read-out: MIC): 0.06 µg/mL (≈ 0.189 µM); MIC (Neisseria gonorrhoeae; Neisseria gonorrhoeae, strain MMX 6771, single data point, Micromyx, read-out: MIC): 0.06 µg/mL (≈ 0.189 µM); MIC (Neisseria gonorrhoeae; Neisseria gonorrhoeae, strain MMX 6793, CIP, by Micromyx, read-out: MIC): 0.06 µg/mL (≈ 0.189 µM); MIC (Neisseria gonorrhoeae; Neisseria gonorrhoeae, strain MMX 6793, single data point, Micromyx, read-out: MIC): 0.06 µg/mL (≈ 0.189 µM); MIC (Neisseria gonorrhoeae; Neisseria gonorrhoeae, strain MMX 6797, CIP, TET, by Micromyx, read-out: MIC): 0.06 µg/mL (≈ 0.189 µM); MIC (Neisseria gonorrhoeae; Neisseria gonorrhoeae, strain MMX 6797, single data point, Micromyx, read-out: MIC): 0.06 µg/mL (≈ 0.189 µM); MIC (Neisseria gonorrhoeae; Neisseria gonorrhoeae, strain MMX 6803, CIP, by Micromyx, read-out: MIC): 0.13 µg/mL (≈ 0.409 µM); MIC (Neisseria gonorrhoeae; Neisseria gonorrhoeae, strain MMX 6803, single data point, Micromyx, read-out: MIC): 0.13 µg/mL (≈ 0.409 µM); MIC (Neisseria gonorrhoeae; Neisseria gonorrhoeae, strain MMX 6812, CIP, by Micromyx, read-out: MIC): 0.13 µg/mL (≈ 0.409 µM); MIC (Neisseria gonorrhoeae; Neisseria gonorrhoeae, strain MMX 6812, single data point, Micromyx, read-out: MIC): 0.13 µg/mL (≈ 0.409 µM); MIC (Neisseria gonorrhoeae; Neisseria gonorrhoeae, strain MMX 6818, CIP, by Micromyx, read-out: MIC): 0.13 µg/mL (≈ 0.409 µM); MIC (Neisseria gonorrhoeae; Neisseria gonorrhoeae, strain MMX 6818, single data point, Micromyx, read-out: MIC): 0.13 µg/mL (≈ 0.409 µM); MIC (Neisseria gonorrhoeae; Neisseria gonorrhoeae, strain MMX 6819, CIP, by Micromyx, read-out: MIC): 0.13 µg/mL (≈ 0.409 µM); MIC (Neisseria gonorrhoeae; Neisseria gonorrhoeae, strain MMX 6819, single data point, Micromyx, read-out: MIC): 0.13 µg/mL (≈ 0.409 µM); MIC (Neisseria gonorrhoeae; Neisseria gonorrhoeae, strain MMX 6879, by Micromyx, read-out: MIC): 0.06 µg/mL (≈ 0.189 µM); MIC (Neisseria gonorrhoeae; Neisseria gonorrhoeae, strain MMX 6879, single data point, Micromyx, read-out: MIC): 0.06 µg/mL (≈ 0.189 µM); MIC (Neisseria gonorrhoeae; Neisseria gonorrhoeae, strain MMX 6921, CIP, by Micromyx, read-out: MIC): 0.25 µg/mL (≈ 0.787 µM); MIC (Neisseria gonorrhoeae; Neisseria gonorrhoeae, strain MMX 6921, single data point, Micromyx, read-out: MIC): 0.25 µg/mL (≈ 0.787 µM); MIC (Neisseria gonorrhoeae; Neisseria gonorrhoeae, strain MMX 6922, CIP, by Micromyx, read-out: MIC): 0.25 µg/mL (≈ 0.787 µM); MIC (Neisseria gonorrhoeae; Neisseria gonorrhoeae, strain MMX 6922, single data point, Micromyx, read-out: MIC): 0.25 µg/mL (≈ 0.787 µM); MIC (Neisseria gonorrhoeae; Neisseria gonorrhoeae, strain MMX 6983, CIP, by Micromyx, read-out: MIC): 0.25 µg/mL (≈ 0.787 µM); MIC (Neisseria gonorrhoeae; Neisseria gonorrhoeae, strain MMX 6983, single data point, Micromyx, read-out: MIC): 0.25 µg/mL (≈ 0.787 µM); MIC (Neisseria gonorrhoeae; Neisseria gonorrhoeae, strain MMX 6989, by Micromyx, read-out: MIC): 0.13 µg/mL (≈ 0.409 µM); MIC (Neisseria gonorrhoeae; Neisseria gonorrhoeae, strain MMX 6989, single data point, Micromyx, read-out: MIC): 0.13 µg/mL (≈ 0.409 µM); MIC (Neisseria gonorrhoeae; Neisseria gonorrhoeae, strain MMX 6990, CIP, by Micromyx, read-out: MIC): 0.06 µg/mL (≈ 0.189 µM); MIC (Neisseria gonorrhoeae; Neisseria gonorrhoeae, strain MMX 6990, single data point, Micromyx, read-out: MIC): 0.06 µg/mL (≈ 0.189 µM); MIC (Neisseria gonorrhoeae; Neisseria gonorrhoeae, strain MMX 6992, by Micromyx, read-out: MIC): 0.13 µg/mL (≈ 0.409 µM); MIC (Neisseria gonorrhoeae; Neisseria gonorrhoeae, strain MMX 6992, single data point, Micromyx, read-out: MIC): 0.13 µg/mL (≈ 0.409 µM); MIC (Neisseria gonorrhoeae; Neisseria gonorrhoeae, strain MMX 6996, by Micromyx, read-out: MIC): 0.13 µg/mL (≈ 0.409 µM); MIC (Neisseria gonorrhoeae; Neisseria gonorrhoeae, strain MMX 6996, single data point, Micromyx, read-out: MIC): 0.13 µg/mL (≈ 0.409 µM); MIC (Neisseria gonorrhoeae; Neisseria gonorrhoeae, strain MMX 6998, CIP, by Micromyx, read-out: MIC): 0.25 µg/mL (≈ 0.787 µM); MIC (Neisseria gonorrhoeae; Neisseria gonorrhoeae, strain MMX 6998, single data point, Micromyx, read-out: MIC): 0.25 µg/mL (≈ 0.787 µM); MIC (Neisseria gonorrhoeae; Neisseria gonorrhoeae, strain MMX 7002, CIP, by Micromyx, read-out: MIC): 0.13 µg/mL (≈ 0.409 µM); MIC (Neisseria gonorrhoeae; Neisseria gonorrhoeae, strain MMX 7002, single data point, Micromyx, read-out: MIC): 0.13 µg/mL (≈ 0.409 µM); MIC (Neisseria gonorrhoeae; Neisseria gonorrhoeae, strain MMX 7005, by Micromyx, read-out: MIC): 0.03 µg/mL (≈ 0.0944 µM); MIC (Neisseria gonorrhoeae; Neisseria gonorrhoeae, strain MMX 7005, single data point, Micromyx, read-out: MIC): 0.03 µg/mL (≈ 0.0944 µM); MIC90 (Neisseria gonorrhoeae; Neisseria gonorrhoeae, Supplementary Table 3, n = 32 (KKL-35), 71 (MBX-4132) strains, read-out: MIC90 (n)): 0.25 µg/mL (≈ 0.787 µM); MIC (Neisseria gonorrhoeae; strain ATCC 49226, replicates 1-3): 0.124 µg/mL (≈ 0.39 µM); MIC (Neisseria gonorrhoeae; strain ATCC 700719, replicates 1-3): 0.248 µg/mL (≈ 0.781 µM); MIC (Neisseria gonorrhoeae; strain ATCC 700825, replicates 1-3): 0.062 µg/mL (≈ 0.195 µM); MIC (Neisseria gonorrhoeae; strain BAA-1846, replicates 1-3): 0.062 µg/mL (≈ 0.195 µM); MIC (Neisseria gonorrhoeae; strain HO41, replicates 1-3): 0.248 µg/mL (≈ 0.781 µM); fraction unbound [1]: < 0.01; liver microsome stability (in words) [2]: rapidly hydrolyzed; half-life ([2]; mouse, murine liver microsomes, read-out: MMS / Microsomal Stability (t1/2), murine): < 5 min; Average MLMS t½ ([2]; murine liver microsomes, average of replicates): <5 min; MLMS t½ ([2]; murine liver microsomes, individual replicates): <5 min
